The values that follow come from US5847092A (Zambon Group S.p.A., priority 1994, dated 1998).

In brackets after ≈: the same amount, converted by molar mass. Where two headings read alike, the source gives them in different places. A value given as a limit tells only on which side of the number the result lay.

The subject of assay [1] is Escherichia coli ATCC 25922. The assay is described as follows: In vitro antibacterial activity, MIC, broth microdilution. It counts as cell-based. The settings on record: E. coli ATCC 25922, MHB, 37° C., 18 hours; for MIC: Escherichia coli, ATCC25922, read-out: minimum inhibiting concentration MIC. As to the method:
(§1) a) In vitro antibacterial activity The determination of the minimum inhibiting concentrations (MIC), with respect to Gram-positive and Gram-negative bacteria was carried out through the micromethod of gradual broth dilution in double series [National Committee for Clinical Laboratory Standards, 1990; Methods for dilution antimicrobial susceptibility tests for bacteria that grow aerobically; Approved standards […], Villanova, Pa.], by using Mueller Hinton Broth (MHB) as a culture medium. In the case of […] bacteria, horse serum at 5% (Streptococcus pneumoniae and Streptococcus pyogenes) was added to the medium. Roxithromycin and Clarithromycin [The Merck Index, XI Ed., No. 8253 and 2340, respectively] were used as reference macrolides. MIC, expressed as (μg/ml), were determined after incubation of the microplates at 37° C. for 18 hours, evaluating the lowest antibiotic concentration enabling the inhibition of bacterial development.

Assay [2] deals with Klebsiella pneumoniae ZC 2. The description is as above. To be noted: K. pneumoniae ZC 2, MHB, 37° C., 18 hours; for MIC: Klebsiella pneumoniae, ZC2, read-out: minimum inhibiting concentration MIC. The format is cell-based. As to the method:
as §1

For assay [3], the system named is Streptococcus pyogenes A 26. The description is as above. It counts as cell-based. To be noted: S. pyogenes A 26, MHB + 5% horse serum, 37° C., 18 hours; for MIC: Streptococcus pyogenes, A26, read-out: minimum inhibiting concentration MIC. As to the method:
as §1

The subject of assay [4] is Enterococcus faecalis ATCC 29212. The assay is described as above. It counts as cell-based. To be noted: E. faecalis ATCC 29212, MHB, 37° C., 18 hours; for MIC: Enterococcus faecalis, ATCC29212, read-out: minimum inhibiting concentration MIC. As to the method: as §1
Assay [5] has as its system Streptococcus pneumoniae BS 4. Described as above. It counts as cell-based. The settings on record: S. pneumoniae BS 4, MHB + 5% horse serum, 37° C., 18 hours; for MIC: Streptococcus pneumoniae, BS4, read-out: minimum inhibiting concentration MIC. As to the method: as §1
Assay [6] relates to Staphylococcus aureus PV 14. The description is as above. The format is cell-based. To be noted: S. aureus PV 14, MHB, 37° C., 18 hours; for MIC: Staphylococcus aureus, PV14, read-out: minimum inhibiting concentration MIC. As to the method: as §1
Assay [7] concerns Streptococcus pneumoniae BS 3. The assay is described as above. It counts as cell-based. To be noted: S. pneumoniae BS 3, MHB + 5% horse serum, 37° C., 18 hours; for MIC: Streptococcus pneumoniae, BS3, read-out: minimum inhibiting concentration MIC. As to the method: as §1
The subject of assay [8] is Streptococcus pyogenes C 203. The description is as above. The settings on record: S. pyogenes C 203, MHB + 5% horse serum, 37° C., 18 hours; for MIC: Streptococcus pyogenes, C203, read-out: minimum inhibiting concentration MIC. It counts as cell-based. As to the method:
as §1

The subject of assay [9] is Streptococcus pyogenes C 203. Put plainly: In vivo antibacterial activity, experimental pulmonary infection in mouse. The settings on record: for ED50: Streptococcus pyogenes, C203, ip, 240 h, intraperitoneal single dose, read-out: average protecting dose PD50. As to the method: The in vivo antibacterial activity of the compounds of formula (I), expressed as average protecting dose PD50 (mg/Kg), was evaluated by means of experimental pulmonary infection induced in mouse by Streptococcus pyogenes (example 23).
b) In vivo antibacterial activity
The therapeutical effectiveness, expressed as average protecting dose (PD50), of the considered compounds of formula (I) was evaluated by experimental pulmonary infection induced in mouse by Streptococcus pyogenesC 203.
Charles River albin mice (strain CD 1), of body weight comprised between 23-35 g, stabulated in groups of 6 for cage and normo-feeded with standard diet and water ad libitum were used. A suspension of S. pyogenes C 203 (corresponding about to 10^8 UFC) in tryptose broth (0.05 ml) was intranasally administered to each mouse anesthesized with a mixture of ethyl ether and chloroform.
The compounds under examination were intraperitoneally administered as a single dose, in 0.2% Tween suspension, 24 hours before or 1 hour after the infection.
Mice mortality observation was prolonged up to 10 days from the infection.
PD50 calculation, expressed as (mg/Kg), was carried out through the analysis of probit.
In vivo antibacterial activity, expressed as average protecting dose PD50 (mg/Kg), 24 hours before and 1 hour after the experimental pulmonary infection induced in mouse by Streptococcus pyogenes C 203, of the compounds 4, 10, 16-19, 21, 23, 26-27, 29-30, 33-35 and 38 and of the reference compounds Roxithromycin and Clarithromycin.

For `CC[C@H]1OC(=O)[C@H](C)[C@@H](O[C@H]2C[C@@](C)(OC)[C@@H](O)[C@H](C)O2)[C@H](C)[C@@H](O[C@@H]2O[C@H](C)C[C@H](N(C)C)[C@H]2O)[C@](C)(OC)C[C@@H](C)C(=O)[C@H](C)[C@@H](O)[C@]1(C)O` [Clarithromycin, reference compound], the MIC in [1] came to 64 µg/mL (≈ 85.6 µM); in [2], 128 µg/mL (≈ 171 µM); in [3], 0.0078 µg/mL; in [4], 1 µg/mL (≈ 1.34 µM); in assay [5] it was 0.0156 µg/mL; in [6], 0.25 µg/mL (≈ 0.334 µM). In addition, the MIC in [7] and in assay [8] was 0.0078 µg/mL throughout. For the same molecule, the ED50 in assay [9] (1 hour after infection) was 3.25 mg/kg; in assay [9] (24 hours before infection), greater than 50 mg/kg. In assay [9] (administered 24 hours before the infection), the “in vivo activity, pulmonary infection (in words)” value was “inactive”.
On to `CC[C@H]1OC(=O)[C@H](C)[C@@H](O[C@H]2C[C@@](C)(OC)[C@@H](O)[C@H](C)O2)[C@H](C)[C@@H](O[C@@H]2O[C@H](C)C[C@H](N(C)C)[C@H]2O)[C@](C)(O)C[C@@H](C)/C(=N\OCCNCCCCCCNCc2ccccc2)[C@H](C)[C@@H](O)[C@]1(C)O` [Compound 4, Erythromycin A (E)-9-[0-[2-[6-(phenylmethylamino)hexylamino]ethyl]oxime]], for which the MIC in [1] was 4 µg/mL (≈ 4.08 µM); in assay [2], 16 µg/mL (≈ 16.3 µM); in [3], 0.0156 µg/mL; in [4], 4 µg/mL (≈ 4.08 µM); in [5] it was 0.0156 µg/mL; in assay [6], 0.25 µg/mL (≈ 0.255 µM). In addition, the MIC amounted to 0.0156 µg/mL in assay [7] and 0.0039 µg/mL in assay [8]. Also, the ED50 in [9] (1 hour after infection) was found to be 0.9 mg/kg; in assay [9] (24 hours before infection), 4.78 mg/kg.
Turning to `CC[C@H]1OC(=O)[C@H](C)[C@@H](O[C@H]2C[C@@](C)(OC)[C@@H](O)[C@H](C)O2)[C@H](C)[C@@H](O[C@@H]2O[C@H](C)C[C@H](N(C)C)[C@H]2O)[C@](C)(O)C[C@@H](C)/C(=N\OCCNCCCCCNCc2ccccc2)[C@H](C)[C@@H](O)[C@]1(C)O` [Compound 10, Erythromycin A (E)-9-[0-[2-[5-(phenylmethylamino)pentylamino]ethyl]oxime]], the MIC is 4 µg/mL (≈ 4.14 µM) in assay [1]; 16 µg/mL (≈ 16.5 µM) in [2]; 0.0078 µg/mL in assay [3]; 4 µg/mL (≈ 4.14 µM) in [4]; 0.0156 µg/mL in assay [5]; 0.5 µg/mL (≈ 0.517 µM) in [6]. Also, the MIC in [7] came to 0.0156 µg/mL; in [8], 0.0039 µg/mL. The results for the ED50 in assay [9] (1 hour after infection) and in assay [9] (24 hours before infection) were 2.36 mg/kg and 5.8 mg/kg, respectively.
On to `CC[C@H]1OC(=O)[C@H](C)[C@@H](O[C@H]2C[C@@](C)(OC)[C@@H](O)[C@H](C)O2)[C@H](C)[C@@H](O[C@@H]2O[C@H](C)C[C@H](N(C)C)[C@H]2O)[C@](C)(O)C[C@@H](C)/C(=N\OCCNCCCCCCNCc2ccc(F)cc2)[C@H](C)[C@@H](O)[C@]1(C)O` [Compound 16, Erythromycin A (E)-9-[0-[2-[6-[(4-fluorophenyl)methylamino]hexylamino]ethyl]oxime]], for which the MIC in assay [1] turned out to be 2 µg/mL (≈ 2 µM); in assay [2], 8 µg/mL (≈ 8.01 µM); in assay [3], 0.0156 µg/mL; in assay [4], 4 µg/mL (≈ 4 µM); in assay [5] it was 0.0156 µg/mL; in [6] it was 0.25 µg/mL (≈ 0.25 µM). Also, the results for the MIC in assay [7] and in assay [8] were 0.0156 µg/mL and 0.0039 µg/mL, respectively. Also, the ED50 stood at 3.6 mg/kg in assay [9] (1 hour after infection) and 10.2 mg/kg in assay [9] (24 hours before infection).
As to `CC[C@H]1OC(=O)[C@H](C)[C@@H](O[C@H]2C[C@@](C)(OC)[C@@H](O)[C@H](C)O2)[C@H](C)[C@@H](O[C@@H]2O[C@H](C)C[C@H](N(C)C)[C@H]2O)[C@](C)(O)C[C@@H](C)/C(=N\OCCNCCCCCCNCc2cc(Cl)cc(Cl)c2O)[C@H](C)[C@@H](O)[C@]1(C)O` [Compound 32, Erythromycin A (E)-9-[0-[2-[6-[(3,5-dichloro-2-hydroxyphenyl)methylamino]hexylamino]ethyl]oxime]], the MIC in [1] turned out to be 4 µg/mL (≈ 3.75 µM); in assay [2] it was 16 µg/mL (≈ 15 µM); in assay [3] it was 0.0625 µg/mL; in assay [4] it was 2 µg/mL (≈ 1.88 µM); in [5], 0.0312 µg/mL; in assay [6], 0.5 µg/mL (≈ 0.469 µM). For the same molecule, the MIC in [7] came to 0.0625 µg/mL; in assay [8] it was 0.0156 µg/mL.
For `CC[C@H]1OC(=O)[C@H](C)[C@@H](O[C@H]2C[C@@](C)(OC)[C@@H](O)[C@H](C)O2)[C@H](C)[C@@H](O[C@@H]2O[C@H](C)C[C@H](N(C)C)[C@H]2O)[C@](C)(O)C[C@@H](C)/C(=N\OCCNCCCCCCNCc2ccc(O)c([N+](=O)[O-])c2)[C@H](C)[C@@H](O)[C@]1(C)O` [Compound 36, Erythromycin A (E)-9-[0-[2-[6-[(4-hydroxy-3-nitrophenyl)methylamino]hexylamino]ethyl]oxime]], the MIC in assay [1] worked out at 8 µg/mL (≈ 7.68 µM); in assay [2], 32 µg/mL (≈ 30.7 µM); in [3], 0.0625 µg/mL; in [4] it was 16 µg/mL (≈ 15.4 µM); in [5], 0.0625 µg/mL; in assay [6] it was 0.5 µg/mL (≈ 0.48 µM). Further, the values for the MIC in assay [7] and in [8] were 0.0625 µg/mL and 0.0078 µg/mL, respectively.
In the case of `CC[C@H]1OC(=O)[C@H](C)[C@@H](O[C@H]2C[C@@](C)(OC)[C@@H](O)[C@H](C)O2)[C@H](C)[C@@H](O[C@@H]2O[C@H](C)C[C@H](N(C)C)[C@H]2O)[C@](C)(O)C[C@@H](C)/C(=N\OCCNCCCCCCNCc2ccc([N+](=O)[O-])c(O)c2)[C@H](C)[C@@H](O)[C@]1(C)O` [Compound 37, Erythromycin A (E)-9-[0-[2-[6-[(3-hydroxy-4-nitrophenyl)methylamino]hexylamino]ethyl]oxime]], the MIC worked out at 4 µg/mL (≈ 3.84 µM) in assay [1]; 16 µg/mL (≈ 15.4 µM) in [2]; 0.0312 µg/mL in assay [3]; 8 µg/mL (≈ 7.68 µM) in assay [4]; 0.0312 µg/mL in [5]; 0.5 µg/mL (≈ 0.48 µM) in [6]. The MIC in assay [7] was determined as 0.0312 µg/mL; in assay [8] it was 0.0039 µg/mL.
“Erythromycin A (E)-9-[0-[2-[N-ethyl-6-[N'-ethyl-N'-(2-phenylethyl)amino]hexylamino]hexyl])oxime] [Compound 2]”: the “minimum inhibiting concentration MIC” value in assay [1] was 16 µg/mL; in assay [2] it was 64 µg/mL; in assay [3], 0.0156 µg/mL; in assay [4] it was 8 µg/mL; in assay [5], 0.0312 µg/mL; in [6], 1 µg/mL. Besides, the “minimum inhibiting concentration MIC” value was found to be 0.0156 µg/mL in assay [7] and 0.0312 µg/mL in assay [8].
